Reference: paper PMC9106635, “Stimulation of the atypical chemokine receptor 3 (ACKR3) by a small-molecule agonist attenuates fibrosis in a preclinical liver but not lung injury model” (Cellular and Molecular Life Sciences: CMLS, 2022)

What was measured:
[1] = tested on: CCl4-induced liver fibrosis in C57BL/6J mice; experiment: CCl4-induced liver fibrosis model; type: in vivo, mouse; conditions: 45 mg/kg/dose PO QD, day 28, vs CCl4 + captisol; P < 0.0001 and P = 0.004
Method: A preclinical mouse model for CCl4-induced liver fibrosis was performed at the Department of Metabolic Health Research, The Netherlands Organisation for Applied Scientific Research (TNO) (Leiden, The Netherlands). Fifty-two male C57BL/6J mice were matched on body weight prior to the study and divided into five groups (experimental study design, Supplementary Figure S1a). Starting at day 0, 10–12-week-old mice were intraperitoneally (i.p.) injected (three times a week) with mineral oil (group 1) or CCl4 (15% v/v in mineral oil, group 2–5) for a total of 28 days. At day 0, mice received subcutaneous treatment with compound 18a (15 mg/kg/dose, twice daily (BID), group 3), or corresponding vehicle control (23% HPBCD, twice daily (BID), groups 1 and 2)], or received daily gavage with either an ALK5/ALK4 kinase inhibitor [SM 16 (45 mg/kg/dose, PO, QD, group 5) or its corresponding vehicle control (β-cyclodextrin sulfobutyl ether sodium salt or captisol, PO, QD, group 4)]. Plasma samples were collected by a tail vein bleed at day 7. At day 28, mice were sacrificed using CO2 and additional plasma samples and liver lobes were collected. As a primary endpoint collagen surface area was determined on cross-sections of the lateral left lobe by picro sirius red (PSR) staining. As a secondary endpoint collagen content (hydroxyproline) of the left median lobe was analyzed using a chromogenic assay according to the manufacturer’s instructions (QuickZyme Biosciences, Leiden, The Netherlands).

[2] = tested on: mouse CXCL12 plasma levels; experiment: Mouse CXCL12 plasma determination (Bio-Plex); type: in vivo; conditions: liver fibrosis model, day 28, 45 mg/kg/dose PO QD
Method: CXCL12 plasma levels were determined using Bio-Plex Pro Mouse Chemokine SDF-1a/CXCL12 (Bio-Rad) according to the manufacturer’s protocol. Prior to the assay mouse plasma samples were centrifuged for 15 min at 1000×g at 4 °C to remove any particulates. A four-fold dilution series of mouse CXCL12, blank samples and 1:5 diluted plasma samples were prepared. A 1:1 mixture of magnetic beads (50 µL/well) and sample (50 µL/well) was added to the 96-well assay plate, which was then sealed and incubated (30 min at RT) on a plate shaker at 850 rpm protected from light. After washing three times with wash buffer 25 µL/well detection antibody was added and the plate was again incubated as described above. The plate was again washed three times (100 µL/well wash buffer) followed by the addition of streptavidin-PE (50 µL/well). The plate was sealed and incubated (10 min at RT) at 850 rpm protected from light. Finally, the plate was again washed three times and the magnetic beads were resuspended in fresh assay buffer (152 µL/well). The plate was sealed and shaken for an additional 30 s before being analyzed with the Bioplex 200 System. Data were analyzed with the Bio-Plex Manager Software.

SMILES: Cc1cccc(-c2[nH]c(C34CCC(C(N)=O)(CC3)CC4)nc2-c2ccc3c(c2)OCO3)n1 [SM 16, reference compound]
- liver fibrosis: PSR-positive area and hydroxyproline content [1]: significantly attenuated liver fibrosis
- plasma CXCL12 levels [2]: no further increase of plasma CXCL12 was observed
